The results in this text go back to ChEMBL document CHEMBL4725341, “Heteroarylureas with fused bicyclic diamine cores as inhibitors of fatty acid amide hydrolase” (Bioorg Med Chem Lett, 2020).

Each structure is given as a SMILES string. pIC50: −log10 of the molar value.

The nature of series [1]: In vivo inhibition of FAAH in rat assessed as increase in AEA level in brain at 20 mg/kg, po. It is filed as organism-based.
For series [2], the target named is T1, Fatty-acid amide hydrolase 1 (Homo sapiens, UniProt O00519).
T1 sequence (O00519 whole entry): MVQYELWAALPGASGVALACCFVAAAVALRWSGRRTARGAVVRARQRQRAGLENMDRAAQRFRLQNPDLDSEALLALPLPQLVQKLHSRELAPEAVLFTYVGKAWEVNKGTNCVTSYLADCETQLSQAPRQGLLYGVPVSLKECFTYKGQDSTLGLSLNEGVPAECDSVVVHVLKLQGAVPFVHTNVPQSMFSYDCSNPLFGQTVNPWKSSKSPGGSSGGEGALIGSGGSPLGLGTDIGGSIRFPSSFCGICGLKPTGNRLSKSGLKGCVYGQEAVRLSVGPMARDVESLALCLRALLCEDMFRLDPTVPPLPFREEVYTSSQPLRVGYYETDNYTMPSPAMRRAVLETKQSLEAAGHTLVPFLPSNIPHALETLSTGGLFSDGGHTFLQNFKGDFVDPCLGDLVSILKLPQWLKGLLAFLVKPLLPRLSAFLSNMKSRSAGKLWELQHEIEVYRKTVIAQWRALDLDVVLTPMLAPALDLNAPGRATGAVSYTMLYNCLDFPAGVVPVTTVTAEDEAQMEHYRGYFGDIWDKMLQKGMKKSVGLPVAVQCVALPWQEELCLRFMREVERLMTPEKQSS
Briefly: Inhibition of human FAAH1 incubated for 60 mins.

A short description of series [3]: In vivo inhibition of FAAH in rat assessed as increase in PEA level in brain at 20 mg/kg, po. It is filed as organism-based.
Series [4] in a line: Drug accumulation in rat peripheral […] at 20 mg/kg, po. It is filed as ADME, organism-based. The settings on record: in vivo.
The nature of series [5]: Drug accumulation in rat CNS at 20 mg/kg, po. The settings on record: in vivo. It counts as ADME, organism-based, Central nervous system.
For series [6], the target named is T2, Fatty-acid amide hydrolase 1 (Rattus norvegicus, UniProt P97612).
T2 sequence (P97612 whole entry): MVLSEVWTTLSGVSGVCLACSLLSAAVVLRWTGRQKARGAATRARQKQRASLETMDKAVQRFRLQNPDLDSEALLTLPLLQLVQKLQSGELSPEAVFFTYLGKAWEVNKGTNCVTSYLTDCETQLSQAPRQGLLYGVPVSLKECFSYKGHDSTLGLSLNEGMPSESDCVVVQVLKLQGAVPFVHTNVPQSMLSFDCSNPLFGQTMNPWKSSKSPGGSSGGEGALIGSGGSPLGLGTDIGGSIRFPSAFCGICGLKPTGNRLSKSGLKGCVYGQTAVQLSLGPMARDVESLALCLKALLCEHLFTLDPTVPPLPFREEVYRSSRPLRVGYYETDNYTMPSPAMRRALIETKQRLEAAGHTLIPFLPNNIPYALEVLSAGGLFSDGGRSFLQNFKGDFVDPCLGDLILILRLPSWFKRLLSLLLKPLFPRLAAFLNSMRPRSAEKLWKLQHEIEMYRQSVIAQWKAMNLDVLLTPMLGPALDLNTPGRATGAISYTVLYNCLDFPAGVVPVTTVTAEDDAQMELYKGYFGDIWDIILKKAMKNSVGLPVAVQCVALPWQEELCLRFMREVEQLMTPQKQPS
Briefly: Inhibition of rat FAAH1 incubated for 60 mins.

Series [7] in a line: In vivo inhibition of FAAH in rat assessed as increase in OEA level in brain at 20 mg/kg, po. It is filed as organism-based.

For the compound `O=C(Nc1noc2ccccc12)N1CC[C@@H]2CN(Cc3cccc(Oc4ccc(Cl)cc4)c3)C[C@H]2C1`, the “inhibition (INH)” value in series [1], in series [3] and in series [7] was “Not Active” in each case. Further, the pIC50 (in general, the negative decadic logarithm of the IC50, by convention in mol/L) in series [2] is 6.63; in series [6], 7.55. Moreover, the Drug uptake entry in series [4] and in series [5] was “Not Active” throughout.
